Experimental data published in publication PMC5418449, “Characterisation of CCT271850, a selective, oral and potent MPS1 inhibitor, used to directly measure in vivo MPS1 inhibition vs therapeutic efficacy” (British Journal of Cancer, 2017).

What was measured:
Design in all cases: 14-day clonogenic growth inhibition assay, human cancer cell line panel
Settings in all cases: 14-day clonogenic assay; inhibitor; read-out: Table S1. IC50 of CCT271850 determined by MTT and clonogenic assays (CA). / All cell lines were tested at least 2 times. / 14-day CA
[1] = test system: IGROV1
Procedure: (§1) To evaluate CCT271850 antiproliferation effects in a large panel of human cancer cell lines, 91 cell lines were treated for 72 h and 14 days at different compound concentrations in growth inhibition assays. The growth inhibition values as measured by IC50 are summarised in Table 2 and Supplementary Table S1. […] Cell lines from colon and head and neck cancers were among the most sensitive.

[2] = test system: EF021
Procedure: as §1

[3] = test system: A2780
Procedure: as §1

[4] = test system: TOV21G
Procedure: as §1

[5] = test system: Lon-HN5
Procedure: as §1

[6] = test system: PT45
Procedure: as §1

[7] = test system: O13
Procedure: as §1

[8] = test system: EF027
Procedure: as §1

[9] = test system: 011A
Procedure: as §1

[10] = test system: OAW42
Procedure: as §1

[11] = test system: Miapaca-2
Procedure: as §1

[12] = test system: OVCAR4
Procedure: as §1

[13] = test system: SW626
Procedure: as §1

[14] = test system: OVCAR5
Procedure: as §1

[15] = test system: 011B
Procedure: as §1

[16] = test system: OVCAR8
Procedure: as §1

[17] = test system: Kuramochi
Procedure: as §1

[18] = test system: KGN
Procedure: as §1

[19] = test system: CAL27
Procedure: as §1

[20] = test system: 015B
Procedure: as §1

[21] = test system: RMG1
Procedure: as §1

[22] = test system: Det562
Procedure: as §1

[23] = test system: PANC-1
Procedure: as §1

[24] = test system: OAW28
Procedure: as §1

[25] = test system: Suit-2
Procedure: as §1

[26] = test system: PJ41
Procedure: as §1

[27] = test system: HN3
Procedure: as §1

[28] = test system: PATU-8988T
Procedure: as §1

[29] = test system: PATU-8902
Procedure: as §1

[30] = test system: CaoV3
Procedure: as §1

[31] = test system: OVCAR3
Procedure: as §1

[32] = test system: 005B
Procedure: as §1

[33] = test system: CFPAC-1
Procedure: as §1

[34] = test system: PJ34
Procedure: as §1

[35] = test system: SKOV3
Procedure: as §1

COc1cc(-c2cnn(C)c2)ccc1Nc1ncc2ccnc(N[C@@H](C)C(C)(C)C)c2n1 [34h, CCT271850]
IC50 [1]: 48 nM
IC50 [2]: 72 nM
IC50 [3]: 105 nM
IC50 [4]: 7.8 nM
IC50 [5]: 44 nM
IC50 [6]: 59 nM
IC50 [7]: 21 nM
IC50 [8]: 37 nM
IC50 [9]: 20 nM
IC50 [10]: 57 nM
IC50 [11]: 68 nM
IC50 [12]: 62 nM
IC50 [13]: 32 nM
IC50 [14]: 82 nM
IC50 [15]: 21 nM
IC50 [16]: 101 nM
IC50 [17]: 34 nM
IC50 [18]: 106 nM
IC50 [19]: 4 nM
IC50 [20]: 59 nM
IC50 [21]: 42 nM
IC50 [22]: 46 nM
IC50 [23]: 74 nM
IC50 [24]: 61 nM
IC50 [25]: 87 nM
IC50 [26]: 0.8 nM
IC50 [27]: 5.2 nM
IC50 [28]: 87 nM
IC50 [29]: 28 nM
IC50 [30]: 75 nM
IC50 [31]: 99 nM
IC50 [32]: 45 nM
IC50 [33]: 63 nM
IC50 [34]: 35 nM
IC50 [35]: 58 nM
